According to PubChem BioAssay AID256 (DTP/NCI, 2004):
Where “and” joins values, the source holds several entries; their conditions need not be identical. Equal values may be shown once. Inconclusive results and toxic doses are left out. How the source made its calls: active means survival T/C of 150% or more; inactive means T/C below 125% in these data.

Tested on: CD2F1 mice, L1210 leukemia ip, survival T/C
Test: NCI In Vivo Anticancer Drug Screen. Data for tumor model L1210 Leukemia (intraperitoneal) in CD2F1 (CDF1) mice
Details: higher = longer survival
Outline: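 Transplantable tumor in mice; compound-treated vs vehicle-treated groups. Read-out = treated/control ratio of the measured endpoint.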

[1] = endpoint: mean survival time, dose: 100.0 mg/kg/injection, schedule: Q01DX009 (ip), vehicle: saline with Tween-80
[2] = endpoint: mean survival time, dose: 100.0 mg/kg/injection, schedule: Q04DX003 (ip), vehicle: saline with Tween-80
[3] = endpoint: mean survival time, dose: 200.0 mg/kg/injection, schedule: Q01DX009 (ip), vehicle: saline with Tween-80
[4] = endpoint: mean survival time, dose: 200.0 mg/kg/injection, schedule: Q04DX003 (ip), vehicle: saline with Tween-80
[5] = endpoint: mean survival time, dose: 400.0 mg/kg/injection, schedule: Q01DX009 (ip), vehicle: saline with Tween-80
[6] = endpoint: mean survival time, dose: 400.0 mg/kg/injection, schedule: Q04DX003 (ip), vehicle: saline with Tween-80
[7] = endpoint: mean survival time, dose: 100.0 mg/kg/injection, schedule: Q01DX001 (ip), vehicle: saline with Tween-80
[8] = endpoint: mean survival time, dose: 200.0 mg/kg/injection, schedule: Q01DX001 (ip), vehicle: saline with Tween-80
[9] = endpoint: mean survival time, dose: 400.0 mg/kg/injection, schedule: Q01DX001 (ip), vehicle: saline with Tween-80
[10] = endpoint: mean survival time, dose: 50.0 mg/kg/injection, schedule: Q04DX002 (ip), vehicle: saline with Tween-80
[11] = endpoint: mean survival time, dose: 100.0 mg/kg/injection, schedule: Q04DX002 (ip), vehicle: saline with Tween-80
[12] = endpoint: mean survival time, dose: 100.0 mg/kg/injection, schedule: Q04DX003 (ip), vehicle: saline
[13] = endpoint: mean survival time, dose: 200.0 mg/kg/injection, schedule: Q04DX003 (ip), vehicle: saline

Measured: T/C

Cc1cnc(O[Si](C)(C)C)nc1O[Si](C)(C)C
inactive: [1] 97 % of control | [2] 97 % of control | [3] 96 % of control | [4] 98 % of control | [5] 103 % of control | [6] 101 % of control

CCOC(=O)CN1CCC(C2(c3cc4ccccc4[nH]3)OCCO2)CC1
inactive: [7] 102 % of control | [8] 102 % of control | [9] 102 % of control

CC1OC(n2cc(C(N)=O)c3c(N)ncnc32)C(O)C1O (configuration not stated)
inactive: endpoint: mean survival time, dose: 12.5 mg/kg/injection, schedule: Q01DX009 (ip), vehicle: saline 103 % of control | endpoint: mean survival time, dose: 25.0 mg/kg/injection, schedule: Q01DX009 (ip), vehicle: saline 103 % of control | endpoint: mean survival time, dose: 50.0 mg/kg/injection, schedule: Q01DX009 (ip), vehicle: saline 103 % of control | endpoint: mean survival time, dose: 100.0 mg/kg/injection, schedule: Q01DX009 (ip), vehicle: saline 105 % of control

S=C1NCCO1
inactive: [1] 100 % of control and 95 % of control | [2] 95 % of control | [3] 91 % of control and 97 % of control | [4] 93 % of control | [5] 112 % of control | [6] 104 % of control

O=C1NC(c2ccccc2)N=C2Oc3ccccc3C=C12 (configuration not stated)
inactive: endpoint: mean survival time, dose: 1.56 mg/kg/injection, schedule: Q01DX009 (ip), vehicle: saline with Tween-80 103 % of control | endpoint: mean survival time, dose: 3.12 mg/kg/injection, schedule: Q01DX009 (ip), vehicle: saline with Tween-80 94 % of control and 97 % of control and 98 % of control | endpoint: mean survival time, dose: 6.25 mg/kg/injection, schedule: Q01DX009 (ip), vehicle: saline with Tween-80 100 % of control (2×) and 103 % of control | [1] 92 % of control

CCOC(=O)Nc1cccc(Cl)c1Cl
inactive: [1] 97 % of control | [3] 102 % of control | [5] 105 % of control

O=c1[nH]ccc(=S)[nH]1
inactive: [7] 97 % of control | [8] 88 % of control

CCN=C(N)c1ncnnc1N
inactive: endpoint: mean survival time, dose: 100.0 mg/kg/injection, schedule: Q01DX001 (ip), vehicle: carboxymethylcellulose (CMC) 104 % of control | endpoint: mean survival time, dose: 200.0 mg/kg/injection, schedule: Q01DX001 (ip), vehicle: carboxymethylcellulose (CMC) 102 % of control | endpoint: mean survival time, dose: 400.0 mg/kg/injection, schedule: Q01DX001 (ip), vehicle: carboxymethylcellulose (CMC) 102 % of control

Nc1ncnc(N)c1N=O
inactive: [2] 96 % of control | [4] 89 % of control

CSc1ccc(OC(=O)C(C)NC(=O)C(CO)NC(=O)OCc2ccccc2)cc1 (configuration not stated)
inactive: [10] 95 % of control | [11] 92 % of control | endpoint: mean survival time, dose: 200.0 mg/kg/injection, schedule: Q04DX002 (ip), vehicle: saline with Tween-80 95 % of control | endpoint: mean survival time, dose: 400.0 mg/kg/injection, schedule: Q04DX002 (ip), vehicle: saline with Tween-80 92 % of control

CC(=O)NC(=S)NC(C)=O
inactive: endpoint: mean survival time, dose: 75.0 mg/kg/injection, schedule: Q04DX003 (ip), vehicle: saline 103 % of control | endpoint: mean survival time, dose: 150.0 mg/kg/injection, schedule: Q04DX003 (ip), vehicle: saline 103 % of control | endpoint: mean survival time, dose: 300.0 mg/kg/injection, schedule: Q04DX003 (ip), vehicle: saline 107 % of control

O=C(COc1ccc(Cl)c(Cl)c1)NCc1cccc(NC(=O)c2ccc(S(=O)(=O)F)cc2)c1
inactive: [7] 87 % of control | [8] 86 % of control | [9] 89 % of control

Cc1ccc(-c2nc(SCc3ccc(Cl)cc3)[nH]c(=O)c2CCO)cc1
inactive: endpoint: mean survival time, dose: 100.0 mg/kg/injection, schedule: Q04DX003 (ip), vehicle: Klucel (hydroxypropylcellulose) (HPC) 96 % of control | endpoint: mean survival time, dose: 200.0 mg/kg/injection, schedule: Q04DX003 (ip), vehicle: Klucel (hydroxypropylcellulose) (HPC) 87 % of control

CC1=NC2=Nc3cc[n+](C4OC(CO)C(O)C4O)c(=O)n3CC2=CN1C (configuration not stated)
inactive: endpoint: median survival time, dose: 12.5 mg/kg/injection, schedule: Q01DX005 (ip), vehicle: water 107 % of control | endpoint: median survival time, dose: 25.0 mg/kg/injection, schedule: Q01DX005 (ip), vehicle: water 105 % of control | endpoint: median survival time, dose: 50.0 mg/kg/injection, schedule: Q01DX005 (ip), vehicle: water 105 % of control | endpoint: median survival time, dose: 100.0 mg/kg/injection, schedule: Q01DX005 (ip), vehicle: water 105 % of control and 107 % of control | endpoint: median survival time, dose: 200.0 mg/kg/injection, schedule: Q01DX005 (ip), vehicle: water 103 % of control and 105 % of control | endpoint: median survival time, dose: 400.0 mg/kg/injection, schedule: Q01DX005 (ip), vehicle: water 104 % of control

CC(=O)OC1COC(n2c(=S)n(-c3ccccc3)c(=N)c3ccccc32)C(OC(C)=O)C1OC(C)=O (configuration not stated)
inactive: endpoint: mean survival time, dose: 12.5 mg/kg/injection, schedule: Q01DX005 (ip), vehicle: distilled water + Tween-80 90 % of control | endpoint: mean survival time, dose: 25.0 mg/kg/injection, schedule: Q01DX005 (ip), vehicle: distilled water + Tween-80 87 % of control | endpoint: mean survival time, dose: 50.0 mg/kg/injection, schedule: Q01DX005 (ip), vehicle: distilled water + Tween-80 93 % of control | endpoint: mean survival time, dose: 200.0 mg/kg/injection, schedule: Q01DX005 (ip), vehicle: distilled water + Tween-80 92 % of control

CCCCCCCCCCCC[N+]1([O-])CCOCC1
inactive: endpoint: mean survival time, dose: 25.0 mg/kg/injection, schedule: Q04DX002 (ip), vehicle: saline with Tween-80 101 % of control | [10] 97 % of control | [11] 108 % of control

CCCCN(c1ccccc1)S(=O)(=O)c1ccc(Br)cc1
inactive: [1] 97 % of control | [2] 98 % of control | [3] 95 % of control | [4] 102 % of control | [5] 97 % of control | [6] 101 % of control

CCOC(=O)Nc1cc(F)cc(C(F)(F)F)c1F
inactive: [1] 97 % of control | [3] 97 % of control | [5] 109 % of control

O=C(CCc1ccc(S(=O)(=O)F)cc1)Nc1cccc(-c2nc3nc[nH]c(=O)c3[nH]2)c1
inactive: endpoint: mean survival time, dose: 50.0 mg/kg/injection, schedule: Q01DX001 (ip), vehicle: saline with Tween-80 94 % of control | [7] 94 % of control | [8] 90 % of control

Cc1cccc(C)c1NC1=CC(=O)C(=O)c2ccccc21
inactive: endpoint: mean survival time, dose: 75.0 mg/kg/injection, schedule: Q01DX001 (ip), vehicle: saline 95 % of control | endpoint: mean survival time, dose: 150.0 mg/kg/injection, schedule: Q01DX001 (ip), vehicle: saline 89 % of control | endpoint: mean survival time, dose: 300.0 mg/kg/injection, schedule: Q01DX001 (ip), vehicle: saline 97 % of control

CCOC(=O)C1(C(=O)OCC)CC2(COC(c3ccccc3)OC2)C1
inactive: [12] 97 % of control | [13] 97 % of control | endpoint: mean survival time, dose: 400.0 mg/kg/injection, schedule: Q04DX003 (ip), vehicle: saline 95 % of control

CC(=O)Nc1c(Cl)c(Cl)c(Cl)c2c1-c1ccc(Cl)cc1C2
inactive: [7] 95 % of control | [1] 98 % of control | [8] 101 % of control | [3] 103 % of control | [9] 100 % of control | [5] 103 % of control

NC(=O)C1=C(CCCCl)c2ccccc2C1=O
inactive: endpoint: mean survival time, dose: 50.0 mg/kg/injection, schedule: Q04DX003 (ip), vehicle: saline 112 % of control | endpoint: mean survival time, dose: 100.0 mg/kg/injection, schedule: Q01DX001 (ip), vehicle: saline 102 % of control | [12] 115 % of control | endpoint: mean survival time, dose: 200.0 mg/kg/injection, schedule: Q01DX001 (ip), vehicle: saline 95 % of control | [13] 90 % of control
